One assay relates to HCV GT1a replicon cells. Nature of the assay: HCV replicon assay, GT1a replicon cells. Type of assay: cell-based. The settings on record: Hepatitis C virus, 72 hours incubation, luciferase reporter or NEO gene qPCR readout, read-out: EC50 against HCV 1a genotype. The procedure:
(§1) An HCV Replicon assay was utilized in the present disclosure, and was prepared, developed and validated as described in Science, 1999, 285 (5424), 110-3 and J. Virol., 2003, 77 (5), 3007-19.
(§2) HCV GT1a, GT1b and GT2a replicon cells were used to test the currently described compound series as well as wild-type cells HCV 1b and resistant cells Y^93H, L31F, P32L and I302V. GT1a and CT1b are HCV Replicon System which is transfected HCV 1a, 1b genotype respectively.
(§3) 1. Testing EC50 of the Compounds by Luciferase Assay
(§4) The GT1b cells and GT1a cells were seeded into 96-well plates (8,000 cells in 125 μl/well) respectively; each compound was diluted to desired concentration using 5-fold serial dilutions protocol, 10 dose in duplicate, and added to wells with POD™ 810 Plate Assembler. The final concentration of DMSO was 0.5%; the plates were incubated in a CO2 incubator for 72 hours; after that, 40 μl of Luciferase assay substrate (Promega Bright-Glo) was added to each well, and detected by a chemiluminescence detection system (Topcount Microplate Scintillation and Luminescence Counter) 5 minutes later; data analysis.
(§5) 2. Testing EC50 of the Compounds by Detecting Antibiotic G418 Resistance Gene NEO Gene
(§6) The GT1b cells and GT1a cells were seeded into 96-well plates (8,000 cells in 125 μl/well) respectively; each compound was diluted to desired concentration using 5-fold serial dilutions protocol, 10 dose in duplicate, and added to wells with POD™ 810 Plate Assembler., the final concentration of DMSO was 0.5%; the cells were incubated in a CO2 incubator for 72 hours; quantitative PCR. • Sample preparation: the supernatant was removed, 100 μl of FCW buffer solution was added to each well, washed carefully and discarded the solution; 50 μl of lysate FCP was added to each well, the cells was lysed as PCR template and diluted with DEPC water. • Quantitative PCR: preparation of reaction mixture according to PCR system; the reaction mixture was dispensed into a 384-well PCR reaction plate (specially for quantitative); and a standard template which was diluted in proportion was distributed into the plate; and the sample template was distributed into the plate; then the 384-well plate was sealed with closure plate membrane; the […] PCR machine was operated by procedures; data analysis.
(§7) 3. Data Processing: The EC50 Values of Compounds were Analyzed by GraphPad Prism Software.
In general terms: In antiviral work, replicon cells carry a viral genome segment that copies itself.

In the next assay the test system is HCV GT1b replicon cells. Description: HCV replicon assay, GT1b replicon cells. Type of assay: cell-based. The settings on record: Hepatitis C virus, 72 hours incubation, luciferase reporter or NEO gene qPCR readout, read-out: EC50 against HCV 1b genotype. The procedure:
as §1, §2, §3, §4, §5, §6, §7

Usually EC50 stands for the concentration giving half of the maximal effect. `COC(=O)N[C@H](C(=O)N1CC(F)(F)CC1c1ncc(-c2ccc(-c3ccc(-c4cnc([C@@H]5CC(F)(F)CN5C(=O)[C@@H](NC(=O)OC)C(C)C)[nH]4)cc3)c3c2C2CCC3N2C)[nH]1)C(C)C` (some centres unmarked) [Example 31]: the EC50 amounted to 0.077 nM with HCV GT1a replicon cells and 0.038 nM with HCV GT1b replicon cells.
Take `COC(=O)N[C@H](C(=O)N1C[C@H](C)C[C@H]1c1ncc(-c2ccc(-c3ccc(-c4cnc([C@@H]5C[C@H](C)CN5C(=O)[C@@H](NC(=O)OC)C(C)C)[nH]4)c4c3C3CCC4N3C)cc2)[nH]1)C(C)C` (some centres unmarked) [Example 33]: the EC50 with HCV GT1a replicon cells was determined as 0.038 nM; with HCV GT1b replicon cells, 0.009 nM.
Regarding `COC(=O)N[C@H](C(=O)N1CCC[C@H]1c1ncc(-c2ccc(-c3ccc(-c4ccc5nc([C@@H]6CCCN6C(=O)[C@@H](NC(=O)OC)C(C)C)[nH]c5c4)c4c3C3CCC4N3C)nc2)[nH]1)C(C)C` (some centres unmarked) [Example 34], the concentration for a half-maximal effect (EC50) with HCV GT1a replicon cells was 0.054 nM; with HCV GT1b replicon cells, 0.006 nM.
The like results for `COC(=O)N[C@@H](C)C(=O)N1CCCC[C@H]1c1ncc(-c2ccc(-c3ccc(-c4ccc5nc([C@@H]6CCCCN6C(=O)[C@H](C)NC(=O)OC)[nH]c5c4)c4c3C3CCC4N3C)cc2)[nH]1` (some centres unmarked) [Example 35] were, in that order, 0.103 nM and 0.017 nM.
`COC(=O)N[C@H](C(=O)N1CCC[C@H]1c1ncc(-c2ccc(-c3ccc(-c4ccc5nc([C@@H]6CCCN6C(=O)[C@@H](NC(=O)OC)C(C)C)[nH]c5c4)c4c3C3CCC4C3)s2)[nH]1)C(C)C` (some centres unmarked) [Example 38]: the figures for the EC50 with HCV GT1a replicon cells and in the assay with HCV GT1b replicon cells were 0.064 nM and 0.017 nM, respectively.
As to `COC(=O)N[C@H](C(=O)N1CCC[C@H]1c1ncc(-c2ccc(-c3ccc(-c4cnc([C@@H]5CCCN5C(=O)[C@@H](NC(=O)OC)C(C)C)[nH]4)c4c3C3CCC4C3)s2)[nH]1)C(C)C` (some centres unmarked) [Example 40], the EC50 in the assay on HCV GT1a replicon cells was 0.083 nM; with HCV GT1b replicon cells, 0.012 nM.
Take `COC(=O)N[C@H](C(=O)N1CCC[C@H]1c1ncc(-c2ccc(-c3ccc(-c4ccc5nc([C@@H]6CCCN6C(=O)[C@@H](NC(=O)OC)C(C)C)[nH]c5c4)c4c3C3CCC4C3)nc2)[nH]1)C(C)C` (some centres unmarked) [Example 41]: the EC50 came out at 0.067 nM with HCV GT1a replicon cells and 0.01 nM with HCV GT1b replicon cells.
With `COC(=O)N[C@H](C(=O)N1CCC[C@H]1C(=O)Nc1ccc(-c2ccc(-c3ccc(NC(=O)[C@@H]4CCCN4C(=O)[C@@H](NC(=O)OC)C(C)C)cc3)c3c2C2CCC3C2)cc1)C(C)C` [Example 43], the concentration giving a half-maximal response (EC50) in the assay on HCV GT1a replicon cells is 1.13 nM; with HCV GT1b replicon cells it was 0.073 nM.
In the same order, the values of `COC(=O)N[C@H](C(=O)N1C2CC2C[C@H]1c1ncc(-c2ccc(-c3ccc(-c4ccc(-c5cnc([C@@H]6NC7CC7N6C(=O)[C@@H](NC(=O)OC)C(C)C)[nH]5)cc4)c4c3C3CCC4C3)cc2)[nH]1)C(C)C` (some centres unmarked) [Example 45] are 3.07 nM and 0.113 nM.
For the compound `COC(=O)N[C@H](C(=O)N1CCS[C@H]1c1ncc(-c2ccc(-c3ccc(-c4cnc([C@@H]5SCCN5C(=O)[C@@H](NC(=O)OC)C(C)C)[nH]4)c4c3C3CCC4C3)cc2)[nH]1)C(C)C` (some centres unmarked) [Example 46], the EC50 with HCV GT1a replicon cells is 0.439 nM; in the assay with HCV GT1b replicon cells, 0.035 nM.
For `COC(=O)N[C@H](C(=O)N1CCC[C@H]1c1ncc(-c2ccc(-c3ccc(-c4ccc5nc([C@@H]6CCCN6C(=O)[C@@H](NC(=O)OC)C(C)C)[nH]c5c4)cc3)c3c2C2CCC3C2)[nH]1)C(C)C` (some centres unmarked) [Example 47], the results for the 50% effective concentration (EC50) in the assay on HCV GT1a replicon cells and in the assay on HCV GT1b replicon cells were 0.053 nM and 0.013 nM, respectively.
For `COC(=O)N[C@H](C(=O)N1CCC[C@H]1c1ncc(-c2ccc3cc(-c4ccc(-c5cnc([C@@H]6CCCN6C(=O)[C@@H](NC(=O)OC)C(C)C)[nH]5)c5c4C4CCC5C4)ccc3c2)[nH]1)C(C)C` (some centres unmarked) [Example 48], the EC50 in the assay on HCV GT1a replicon cells came to 0.043 nM; in the assay with HCV GT1b replicon cells, 0.029 nM.
`COC(=O)N[C@H](C(=O)N1CCC[C@H]1C(=O)Nc1ccc(-c2ccc(-c3ccc(-c4cnc([C@@H]5CCCN5C(=O)[C@@H](NC(=O)OC)C(C)C)[nH]4)cc3)c3c2C2CCC3C2)cc1)C(C)C` (some centres unmarked) [Example 49]: the EC50 in the assay with HCV GT1a replicon cells was determined as 0.855 nM; with HCV GT1b replicon cells it was 0.083 nM.
On to `COC(=O)N[C@H](C(=O)N1C[C@H](C)C[C@H]1c1ncc(-c2ccc(-c3ccc(-c4cnc([C@@H]5C[C@@H](C)CN5C(=O)[C@@H](NC(=O)OC)C(C)C)[nH]4)c4c3C3CCC4CC3)cc2)[nH]1)C(C)C` [Example 59], for which the EC50 in the assay on HCV GT1a replicon cells is 0.037 nM; with HCV GT1b replicon cells it was 0.008 nM.
As for `COC(=O)N[C@H](C(=O)N1CCCC1c1ncc(-c2ccc(-c3ccc(-c4cnc([C@@H]5CC6(CN5C(=O)[C@@H](NC(=O)OC)C(C)C)OCCO6)[nH]4)cc3)c3c2C2CCC3CC2)[nH]1)C(C)C` (some centres unmarked) [Example 61], the results for the EC50 with HCV GT1a replicon cells and in the assay with HCV GT1b replicon cells were 0.088 nM and 0.011 nM, respectively.
`COC(=O)N[C@H](C(=O)N1CCC[C@H]1c1ncc(-c2ccc(-c3ccc(-c4ccc(-c5cnc([C@@H]6CCCN6C(=O)[C@@H](NC(=O)OC)C(C)C)[nH]5)cc4)c4c3C3CCC4O3)cc2)[nH]1)C(C)C` [Example 63]: the EC50 was 2.25 nM in the assay on HCV GT1a replicon cells and 0.815 nM in the assay with HCV GT1b replicon cells.
The like results for `COC(=O)N[C@H](C(=O)N1CCCC1c1nc2ccc(-c3ccc(-c4ccc5nc([C@@H]6CCCN6C(=O)[C@@H](NC(=O)OC)C(C)C)[nH]c5c4)c4c3C3CCC4O3)cc2[nH]1)C(C)C` (some centres unmarked) [Example 65] were, in that order, 0.064 nM and 0.013 nM.
Turning to `COC(=O)N[C@H](C(=O)N1CCC[C@H]1c1ncc(-c2ccc(-c3ccc(-c4cnc([C@@H]5CCCN5C(=O)[C@@H](NC(=O)OC)C(C)C)[nH]4)c4c3C3CCC4C3)c3c2CCC3)[nH]1)C(C)C` (some centres unmarked) [Example 67], the half-maximal effective concentration (EC50) in the assay with HCV GT1a replicon cells was 0.953 nM; with HCV GT1b replicon cells it was 0.053 nM.
On to `[2H]C([2H])([2H])C([2H])(C([2H])([2H])[2H])[C@]([2H])(NC(=O)OC)C(=O)N1CCC[C@H]1c1ncc(-c2ccc(-c3ccc(-c4cnc([C@@H]5CC6CC6N5C(=O)[C@@]([2H])(NC(=O)OC)C([2H])(C([2H])([2H])[2H])C([2H])([2H])[2H])[nH]4)cc3)c3c2C2CCC3C2)[nH]1` (some centres unmarked) [Example 76], for which the half-maximal effective concentration (EC50) in the assay on HCV GT1a replicon cells was found to be 0.127 nM; in the assay with HCV GT1b replicon cells, 0.013 nM.
In the case of `[2H]C([2H])([2H])C([2H])(C([2H])([2H])[2H])[C@]([2H])(NC(=O)OC)C(=O)N1CCC[C@H]1c1ncc(-c2ccc(-c3ccc(-c4cnc([C@@H]5CCCN5C(=O)[C@@]([2H])(NC(=O)OC)C([2H])(C([2H])([2H])[2H])C([2H])([2H])[2H])[nH]4)c4c3C3CCC4C3)c(F)c2)[nH]1` (some centres unmarked) [Example 77], the EC50 in the assay with HCV GT1a replicon cells was 0.206 nM; in the assay with HCV GT1b replicon cells it was 0.009 nM.
Take `[2H]C([2H])([2H])C([2H])(C([2H])([2H])[2H])[C@]([2H])(NC(=O)OC)C(=O)N1CCC[C@H]1c1ncc(-c2ccc(-c3nnc(-c4ccc5[nH]c([C@@H]6CCCN6C(=O)[C@@]([2H])(NC(=O)OC)C([2H])(C([2H])([2H])[2H])C([2H])([2H])[2H])nc5c4)c4c3C3CCC4CC3)cc2)[nH]1` [Example 78]: the 50% effective concentration (EC50) was 0.045 nM in the assay with HCV GT1a replicon cells and 0.007 nM with HCV GT1b replicon cells.
As for `[2H]C([2H])([2H])[C@]([2H])(NC(=O)OC)C(=O)N1C[C@@H](F)C[C@H]1c1ncc(-c2ccc(-c3ccc(-c4cnc([C@@H]5C[C@H](F)CN5C(=O)[C@@]([2H])(NC(=O)OC)C([2H])([2H])[2H])[nH]4)c4c3C3CCC4C3)cc2)[nH]1` (some centres unmarked) [Example 79], the EC50 in the assay on HCV GT1a replicon cells is 0.314 nM; in the assay with HCV GT1b replicon cells, 0.043 nM.

The record behind these values is patent publication US9309231B2, “Bridged ring compounds as hepatitis C virus (HCV) inhibitors and pharmaceutical applications thereof” (SUNSHINE LAKE PHARMA CO., LTD, priority 2012, dated 2016).
